Test results taken from patent publication US20260125375A1 (Pfizer Inc., priority 2022, published 2026).
Read-outs that look alike come from different tables or passages of the source.

What was measured:
[1] = biological target: T1, CBL-B (Homo sapiens, UniProt Q13191); experiment: Jurkat HiBit-IL2 assay (c-CBL KO), reporter cell line expressing CBL-B only; format: cell-based; settings: geometric mean, read-out: C-CBL KO EC50 (nM) GMean
T1 construct: endogenous in cells; host or cells: Jurkat HiBit-IL2 reporter cells, C-CBL knocked out by CRISPR
Excerpt: (§1) Jurkat HiBit-IL2 Assay (WT, c-CBL KO, CBL-B KO)
(§2) The purpose of the Jurkat HiBit-IL2 assay is to evaluate the effect of the inhibition of CBL-B and/or C-CBL on TCR/CD28 stimulated interleukin-2 (IL-2) secretion.
(§3) The expression of IL-2 can then be accurately measured by HiBit luciferase assay. Further, C-CBL or CBL-B was knocked out by CRISPR respectively in this Jurkat HiBit-IL2 reporter cell line to create reporter cell line expressing CBL-B only (c-CBL knockout (KO)) or C-CBL only (CBL-B KO).
(§4) All three reporter cell lines were maintained in RPMI-1640 media with GlutaMax, 10% fetal bovine serum, 100 units/ml of penicillin, and 100 μg/ml of streptomycin at 37° C., 5% CO2, at a cell density 1×10e5-2×10e6 viable cells/ml. Serial diluted compounds in DMSO (40 nl/well, final 0.1% DMSO in assay cell culture) were plated into 384-well white-wall clear-bottom cell culture plates. Reporter cells were pelleted and resuspended in fresh cell culture medium to 0.66×10e6 cells/ml and added to the assay plate at 30 μl/well (20,000 cells/well). The cells were incubated with compounds for 1 hour at 37° C., 5% CO2. 10 μl/well of anti-CD3 antibody (OKT3) and anti-CD28 antibody (CD28.2) prediluted in fresh cell culture medium at 4× final concentration (anti-CD3 mAb: 4 μg/ml; anti-CD28 mAb: 8 μg/ml) was added into the cells (final concentration of anti-CD3 mAb: 1 μg/ml; anti-CD28 mAb: 2 μg/ml). The cells were cultured for another 4 hours at 37° C., 5% CO2. The Nano-Glo HiBiT Lytic Reagent was prepared following the manufacturer's protocol. 20 ul/well of the Nano-Glo HiBiT Lytic Reagent was added into the reporter cell culture assay plate and incubated at room temperature (20-25° C.) for 15 minutes. The plates were read on a Perkin-Elmer EnVision plate reader with 0.1 second integration time. Data were normalized to “Fold of Effect” with the anti-CD3 and anti-CD28 antibodies only samples as the baseline activation level and EC50 was calculated. The EC50 (nM) values reported are the geometric means (GMean) of the number of tests conducted.

[2] = biological target: T2, C-CBL (Homo sapiens, UniProt P22681); experiment: Jurkat HiBit-IL2 assay (CBL-B KO), reporter cell line expressing C-CBL only; format: cell-based; settings: geometric mean, read-out: CBL-B KO EC50 (nM) GMean
T2 construct: endogenous in cells; host or cells: Jurkat HiBit-IL2 reporter cells, CBL-B knocked out by CRISPR
Excerpt: as §1, §2, §3, §4

[3] = biological target: T3, CBL-B (residues 36-427) (Homo sapiens, UniProt Q13191); experiment: Ligand Displacement Assay (LDA), HTRF competitive binding against BODIPY-labeled fluorescent tracer, CBL-B; settings: geometric mean of the number of tests, read-out: CBL-B Ki (nM) GMean
T3 construct: Purified CBL-B (residues 36-427) and C-CBL (residues 46-435) proteins from baculovirus-infected insect cells; made in house; host or cells: baculovirus-infected insect cells
Outline: (§5)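 Ki values, given as geometric means of repeated tests, come from TR-FRET displacement of a BODIPY-labelled tracer from terbium-streptavidin-bound, AviTag-biotinylated protein made in baculovirus-infected insect cells. Compounds ran as three-fold dilutions in duplicate, […], 2% DMSO.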

[4] = biological target: T4, C-CBL (residues 46-435) (Homo sapiens, UniProt P22681); experiment: Ligand Displacement Assay (LDA), HTRF competitive binding against BODIPY-labeled fluorescent tracer, C-CBL; settings: geometric mean of the number of tests, read-out: C-CBL Ki (nM) GMean
T4 construct: Purified CBL-B (residues 36-427) and C-CBL (residues 46-435) proteins from baculovirus-infected insect cells; made in house; host or cells: baculovirus-infected insect cells
T4 sequence (P22681 46-435): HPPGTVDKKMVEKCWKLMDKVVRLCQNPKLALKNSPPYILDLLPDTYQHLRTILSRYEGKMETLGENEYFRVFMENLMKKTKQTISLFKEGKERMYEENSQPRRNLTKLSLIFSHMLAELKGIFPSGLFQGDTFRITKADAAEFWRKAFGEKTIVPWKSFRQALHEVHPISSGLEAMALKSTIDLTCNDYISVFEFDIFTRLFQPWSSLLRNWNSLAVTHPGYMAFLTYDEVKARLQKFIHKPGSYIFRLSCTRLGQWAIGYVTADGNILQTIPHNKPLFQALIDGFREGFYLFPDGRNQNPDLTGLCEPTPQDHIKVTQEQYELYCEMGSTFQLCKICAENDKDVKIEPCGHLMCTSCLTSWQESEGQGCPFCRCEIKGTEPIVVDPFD
Outline: as §5

[5] = biological target: T5, WT CBL-B (36-427) (Homo sapiens, UniProt Q13191); experiment: Surface Plasmon Resonance (SPR) assay, binding affinity and kinetics, CBL-B; settings: SPR at 10° C., biotinylated WT CBL-B (36-427) on streptavidin chip; geometric mean; read-out: CBL-B SPR Kd (nM) GMean
T5 construct: N-terminal biotinylated WT CBL-B (36-427) and C-CBL (46-435) were captured on a streptavidin (SA) coated sensor chip
Outline: (§6)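 Biotinylated WT CBL-B (36-427) or C-CBL (46-435) captured on streptavidin chip (~5000–6000 RU); binding at 10° C in HEPES buffer pH 7.2 with 2% DMSO. Multi-cycle: 2-fold, 10-point series from 10 or 100 μM, 90 s association. Single-cycle: 3-fold, 6-point, 0.001–1 μM, 120 s association, >5400 s dissociation.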

[6] = biological target: T6, C-CBL (46-435) (Homo sapiens, UniProt P22681); experiment: Surface Plasmon Resonance (SPR) assay, binding affinity and kinetics, C-CBL; settings: SPR at 10° C., biotinylated C-CBL (46-435) on streptavidin chip; geometric mean; read-out: C-CBL SPR Kd (nM) GMean
T6 construct: N-terminal biotinylated WT CBL-B (36-427) and C-CBL (46-435) were captured on a streptavidin (SA) coated sensor chip
T6 sequence (P22681 46-435): T4 sequence (P22681 46-435)
Outline: as §6

[7] = CBL-B KO (C-CBL only), anti-CD3/anti-CD28 stimulation 4 hours, Table 16a

Row | Structure (SMILES) | EC50 ([1]; C-CBL KO (expressing CBL-B only), Table 16b (further repetition)) [nM] | EC50 ([1]; c-CBL KO (CBL-B only), anti-CD3/anti-CD28 stimulation 4 hours, Table 16a) [nM] | EC50 [2, 7] [nM] | EC50 ([2]; CBL-B KO (expressing C-CBL only), Table 16b (further repetition)) [nM] | Ki [3] [nM] | Ki [4] [nM] | Kd [5] [nM] | Kd [6] [nM]
1 | CC(NCCO)c1nc(C(F)(F)F)cc2c(-c3cccc([C@H](c4nncn4C)C4CCCCC4)c3)n[nH]c12 (single isomer, unassigned) [Example C39] | 108 | 35 | 496 | 615 | 7.4 | 73.2 | – | –
2 | Cn1cnnc1[C@@H](c1cccc(-c2n[nH]c3c(CN[C@@H]4CCC(F)(F)C4)nc(C(F)(F)F)cc23)c1)C1CCC1 [Example C5, (1R)-N-{[3-{3-[(R)-cyclobutyl(4-methyl-4H-1,2,4-triazol-3-yl)methyl]phenyl}-5-(trifluoromethyl)-1H-pyrazolo[3,4-c]cyclopen-7-yl]methyl}-3,3-difluorocyclopentan-1-amine] | – | – | 1250 | – | 55.3 | 526 | 3.4 | 203
3 | Cn1cnnc1CC1(c2cccc(-c3n[nH]c4c(OCCN)nc(C(F)(F)F)cc34)c2)COC1 [Example J3, 2-{[3-(3-{3-[(4-methyl-4H-1,2,4-triazol-3-yl)methyl]oxetan-3-yl}phenyl)-5-(trifluoromethyl)-1H-pyrazolo[3,4-c]pyridin-7-yl]oxy}ethan-1-amine] | – | – | – | – | 16.7 | 76.3 | 3.2 | 53.6
4 | CN1CC[C@@H](Oc2nc(C(F)(F)F)cc3c(-c4cccc([C@H](c5nncn5C)C5CCC5)c4)n[nH]c23)C1 [Example J4, 3-{3-[(R)-cyclobutyl(4-methyl-4H-1,2,4-triazol-3-yl)methyl]phenyl}-7-{[(3R)-1-methylpyrrolidin-3-yl]oxy}-5-(trifluoromethyl)-1H-pyrazolo[3,4-c]pyridine] | – | – | – | – | 9.2 | 83.6 | 3.7 | 145
5 | CN1CC[C@H](Oc2nc(C(F)(F)F)cc3c(-c4cccc([C@H](c5nncn5C)C5CCC5)c4)n[nH]c23)C1 [Example J5, 3-{3-[(R)-cyclobutyl(4-methyl-4H-1,2,4-triazol-3-yl)methyl]phenyl}-7-{[(3S)-1-methylpyrrolidin-3-yl]oxy}-5-(trifluoromethyl)-1H-pyrazolo[3,4-c]pyridine] | – | – | – | – | 10 | 87.1 | 3.3 | 137
6 | CNc1nc(C(F)(F)F)cc2c(-c3cccc(C4(Cc5nncn5C)COC4)c3)n[nH]c12 [Example J8, N-methyl-3-(3-{3-[(4-methyl-4H-1,2,4-triazol-3-yl)methyl]oxetan-3-yl}phenyl)-5-(trifluoromethyl)-1H-pyrazolo[3,4-c]pyridin-7-amine] | – | – | – | – | 69.3 | 251 | 16.1 | 136
7 | CN(C)c1nc(C(F)(F)F)cc2c(-c3cccc(C4(Cc5nncn5C)COC4)c3)n[nH]c12 [Example J9, N,N-dimethyl-3-(3-{3-[(4-methyl-4H-1,2,4-triazol-3-yl)methyl]oxetan-3-yl}phenyl)-5-(trifluoromethyl)-1H-pyrazolo[3,4-c]pyridin-7-amine] | – | – | – | – | 92.2 | 228 | 30.1 | 244
8 | COc1nc(C(F)(F)F)cc2c(-c3cccc(C4(Cc5nncn5C)COC4)c3)n[nH]c12 [Example J10, 7-methoxy-3-(3-{3-[(4-methyl-4H-1,2,4-triazol-3-yl)methyl]oxetan-3-yl}phenyl)-5-(trifluoromethyl)-1H-pyrazolo[3,4-c]pyridine] | – | – | – | – | 25.1 | 91.9 | 21.4 | 178
9 | CN1CC[C@@H](N(C)c2nc(C(F)(F)F)cc3c(-c4cccc([C@H](c5nncn5C)C5CCC5)c4)n[nH]c23)C1 [Example J11, 3-{3-[(R)-cyclobutyl(4-methyl-4H-1,2,4-triazol-3-yl)methyl]phenyl}-N-methyl-N-[(3R)-1-methylpyrrolidin-3-yl]-5-(trifluoromethyl)-1H-pyrazolo[3,4-c]pyridin-7-amine] | – | – | – | – | 41.6 | 275 | 24 | 393
10 | CN1CC[C@H](N(C)c2nc(C(F)(F)F)cc3c(-c4cccc([C@H](c5nncn5C)C5CCC5)c4)n[nH]c23)C1 [Example J12, 3-{3-[(R)-cyclobutyl(4-methyl-4H-1,2,4-triazol-3-yl)methyl]phenyl}-N-methyl-N-[(3S)-1-methylpyrrolidin-3-yl]-5-(trifluoromethyl)-1H-pyrazolo[3,4-c]pyridin-7-amine] | – | – | – | – | 16.1 | 118 | 16.1 | 240
11 | Cn1cnnc1CC1(c2cccc(-c3n[nH]c4c(CCN)nc(C(F)(F)F)cc34)c2)COC1 [Example K5, 2-[3-(3-{3-[(4-methyl-4H-1,2,4-triazol-3-yl)methyl]oxetan-3-yl}phenyl)-5-(trifluoromethyl)-1H-pyrazolo[3,4-c]pyridin-7-yl]ethan-1-amine] | – | – | – | – | 55.3 | 199 | 23.6 | 221
12 | Cn1cnnc1[C@@H](c1cccc(-c2n[nH]c3c(CO)nc(C(F)(F)F)cc23)c1)C1CCC1 [Example K9, [3-{3-[(R)-cyclobutyl(4-methyl-4H-1,2,4-triazol-3-yl)methyl]phenyl}-5-(trifluoromethyl)-1H-pyrazolo[3,4-c]pyridin-7-yl]methanol] | – | – | – | – | 45.4 | 328 | 12.7 | 298
13 | C[C@@H](N)c1nc(C(F)(F)F)cc2c(-c3cccc([C@H](c4nncn4C)C4CCC4)c3)n[nH]c12 [Example K13, (1R)-1-[3-{3-[(R)-cyclobutyl(4-methyl-4H-1,2,4-triazol-3-yl)methyl]phenyl}-5-(trifluoromethyl)-1H-pyrazolo[3,4-c]pyridin-7-yl]ethan-1-amine] | – | – | – | – | 27 | 215 | 12.1 | 285
14 | C[C@H](Cc1nncn1C)c1cccc(-c2n[nH]c3cnc(C(F)(F)F)cc23)c1 [Example N1, 3-{3-[(2R)-1-(4-methyl-4H-1,2,4-triazol-3-yl)propan-2-yl]phenyl}-5-(trifluoromethyl)-1H-pyrazolo[3,4-c]pyridine] | – | – | – | – | 70 | 249 | 35.8 | 275
